Test results from US11793741B2, “Topical composition” (Conopco, Inc., priority 2017, dated 2023).

Tested on: psoriasin
Assay: Generation of psoriasin (AMP marker) by human keratinocytes, ELISA of cell culture supernatant
Format: cell-based
Settings: NHEK cells, 72 hours; for Fold change in psoriasin levels over control: control (Example A) = 1
Procedure: The experiment was done with the above-mentioned cells with passage between 3 and 4. The cells were seeded (35,000 cells/well) in 24 well plate with keratinocyte growth media (KGM) obtained from Invitrogen®. The plate was then incubated at 37±2° C. in a CO2 incubator for 48 hours. Step 2: After 48 hours of incubation, cell differentiation was induced by replacing media with fresh KGM supplemented with 2 mM calcium chloride solution. This was then followed by incubation at 37±2° C. in a CO2 incubator for 48 hours. Step 3: After that, the cells were treated with niacinamide and the compound of formula I, i.e. N-cyclopropyl nicotinamide, in varying concentration as outlined in table 1 below with keratinocyte growth media supplemented with 2 mM calcium chloride solution. Step 4: After the above treatment, cells were again incubated at 37±2° C. in a CO2 incubator for 72 hours. Step 5: After 72 hours of incubation, cell culture supernatant from each well was collected in a sterile tube. The samples were then stored at −80° C. until used for testing psoriasin secretion by standard ELISA technique using psoriasin ELISA kit obtained from Circulx® (No: CY-8073). In the current experiment, psoriasin was used as a marker for AMP. Step 6: The ELISA method was performed by using 100 μL of cell culture supernatant from each sample. The data is expressed in terms of fold change over control (no treatment: Example A). The fold change in psoriasin levels in case of control (example A) is taken to be equal to 1 fold. Any fold change in psoriasin obtained due to treatments outlined in all the other examples was over and above the 1 fold change obtained from the control.

| Compound | Fold change in psoriasin levels over control (100 μg/mL active) | Fold change in psoriasin levels over control (250 μg/mL active) | Fold change in psoriasin levels over control (500 μg/mL active) | Fold change in psoriasin over and above 1 fold of the control (100 μg/mL active) |
| --- | --- | --- | --- | --- |
| O=C(NC1CC1)c1cccnc1 [Example 1, N-cyclopropyl nicotinamide] | 1.61 fold | 1.88 fold | 2.16 fold | – |
| NC(=O)c1cccnc1 [Example B, Niacinamide] | 1.26 fold | 1.50 fold | 1.44 fold | 0.26 fold |
